Measurements from patent US8007991B2, “Three-dimensional physiological matrices for oncological testing, and methods for their production and use” (priority 2006, dated 2011).

Test system: Patient Sample GS-640, kidney tissue (renal cell carcinoma)
Experiment: Tumor fragment growth and invasion (cell migration) in three-dimensional gel matrix, 48-well plate chemotherapy screening
Type: cell-based, human
Details: 5 days treatment; for number of cells that have grown and invaded away from the solid tumor fragment / distance of cell migration away from the solid tumor fragment: 37 degrees Celsius; for number of cells that have grown and invaded away from the solid tumor fragment: 5% CO2, photomicrograph compared with untreated control (FIG. 5); for response to the drug (overall): renal cell carcinoma patient sample; for distance of cell migration away from the solid tumor fragment: 5% CO2, photomicrograph
From the text: FIGS. 1-8 are photographic and photomicrographic images which show, by way of example, use of the means and methods of the present invention with respect to a tissue sample removed from a patient. With respect to FIGS. 1-8, Patient Sample GS-640, comprising kidney tissue, was removed from the patient by a surgeon during surgery.
Tissue analysis and screening in accordance with the invention were requested by the surgeon, and proper consent was obtained from the patient prior to surgical removal of a sample quantity of tissue from the RHS Kidney. The patient was diagnosed with renal cell carcinoma. A tissue sample of approximately 1 gram in quantity was removed from the patient during surgery, and was placed into a 25 ml sample jar, and immersed in sterile saline. The tumor tissue was kept at 4 degrees centigrade until processed for the screening of therapeutic compounds in accordance with the means and methods of the invention. All procedures were performed under sterile conditions in a bio-safety laminar flow hood.
FIG. 1 is a photographic image showing the mechanical division of the sample into portions to be tested. The sample has been prepared by dissecting away any non viable tissue and blood prior to mincing into 1-2 mm pieces using sterile disposable scalpels.
FIG. 2 is a photographic image showing tumor sample portions which have been placed into each well of a 48 well plate, and been submersed in a gel matrix mixture according to the invention. After insertion of the portions, the mixture was allowed to form into a gel at room temperature for approximately 30 minutes. Once the gel formed around the fully immersed tumor fragments, nutrient rich media was added as a liquid overlay that permeated the entire gel and tumor fragment.
Each different chemotherapy and or dose of chemotherapy was added to a set of 6 wells out of the 48-well plate. A total of 7 different chemotherapies were assessed in this plate. One set of six wells were not treated with drug and thus acted as ‘control conditions’ for tumor fragment growth and invasion. Each of the eight vertical lanes containing six separate wells was marked with a symbol for each chemotherapy/dose used and noted correspondingly on data collection sheets. […] The plates were then placed in a conventional 37 degree Celsius incubator at 5% CO2.
This image is thus representative of all wells at Day 0 with or without chemotherapeutics. Images were made with a 400× magnification phase contrast micrograph using ZEISS camera specs.
Noteworthy is the halo of cells and increased cell density as compared with the results shown at Day 3 of the test. The lines on the images have been drawn to show the distance measurements within which approximately 95% of the migrating cells have migrated away from the margins of the tissue sample.

| Structure (SMILES) | number of cells that have grown and invaded away from the solid tumor fragment | response to the drug (overall) | distance of cell migration away from the solid tumor fragment |
| --- | --- | --- | --- |
| N.N.[Cl][Pt][Cl] [Cisplatin] | identical in appearance and cell numbers to the control sample | failed chemotherapy | – |
| CC(=O)O[C@@]12CO[C@@H]1C[C@H](O)[C@@]1(C)C(=O)[C@H](O)C3=C(C)[C@@H](OC(=O)[C@H](O)[C@@H](NC(=O)OC(C)(C)C)c4ccccc4)C[C@@](O)([C@@H](OC(=O)c4ccccc4)[C@H]21)C3(C)C [Docetaxol, Docetaxel] | fewer number of invading cells than the control | moderate response | longer migratory distance than treatment with Taxol |
| CC(=O)O[C@H]1C(=O)[C@@]2(C)[C@H]([C@H](OC(=O)c3ccccc3)[C@]3(O)C[C@H](OC(=O)[C@H](O)[C@@H](NC(=O)c4ccccc4)c4ccccc4)C(C)=C1C3(C)C)[C@]1(OC(C)=O)CO[C@@H]1C[C@@H]2O [Taxol, Paclitaxel] | a drop in both the distance and the number of cells | – | a drop in both the distance and the number of cells |
